Here are results for 2 compounds from US6204384A, “Substituted 3-amino-2-hydroxyphenylacetamide derivatives as enzyme inhibitors (II)” (Corvas International, Inc., priority 1997, dated 2001).

The conditions of series [1]: literature; cited from earlier work.
Series [2] deals with trypsin, plasmin and kallikrein. Particulars: literature, inhibiting trypsin; cited from earlier work.
For series [3] the following is noted: literature; cited from earlier work. The source holds these as a separate data set.
Series [4] relates to thrombotic occlusion of the carotid artery. The series can be described thus: Rat model of FeCl3-induced platelet-dependent arterial thrombosis. It is filed as in vivo. Particulars: dose that prevents complete thrombotic occlusion in 50% of animals tested, read-out: ED50 for thrombus prevention in the FeCl3 model of arterial thrombosis. As to the method: The antithrombotic (prevention of thrombus formation) properties of compounds of the present invention are evaluated using the following established experimental model of acute vascular thrombosis which is a rat model of FeCl3 -induced platelet-dependent arterial thrombosis.
This is a well characterized model of platelet dependent, arterial thrombosis which has been used in the evaluation potential antithrombotic compounds such as direct thrombin inhibitors. See, Kurz, K. D., Main, B. W., and Sandusky, G. E., Thromb. Res., 60: 269-280 (1990). In this model a platelet-rich, occlusive thrombus is formed in a segment of the rat carotid artery treated locally with a fresh solution of FeCl3 absorbed to a piece of filter paper. […] The effect of a test compound on the incidence of occlusive thrombus formation following the application of the […] is monitored by ultrasonic flowtometry and is used as the primary end point. […]
Following surgery the animals are randomized in either a control (saline) or treatment group with test compound, with at least 6 animals per group per dose. […] Blood pressure, blood flow, heart rate, and respiration are monitored for 60 minutes.
The incidence of occlusion (defined as the attainment of zero blood flow) is recorded as the primary end point. […]

Consider `N=C(N)c1ccc(CC(=O)C(=O)O)cc1` [APPA, 4-amidinophenylpyruvic acid], for which the “toxicity, in words” value in series [1] was “low toxicity”. Also, in series [2], the “selectivity, in words” value is “non-selective, inhibiting trypsin, plasmin and kallikrein”. Besides, the “pharmacokinetics, in words” value in series [3] is reported as “favourable pharmacokinetics”.
As usually defined, the ED50 is the dose that gives a 50% effect, or the effect in half of the subjects. With `CC1CNc2c(cccc2S(=O)(=O)N[C@@H](CCCNC(=N)N)C(=O)N2CC[C@@H](C)C[C@@H]2C(=O)O)C1` (stereo partly drawn) [Argatroban, 2R,4R-4-methyl-1-[N-2-(3-methyl-1,2,3,4-tetrahydro-8-quinolinesulfonyl)-L-argininy]-2-piperdinecarboxylic acid], in series [4], the 50% effective dose (ED50) is 3.8 mg/kg.
